Values of other authors, collected in patent US20250268950A1, “PRENATAL SUPPLEMENT” (Arizona Board of Regents on Behalf of Arizona State …, priority 2021, published 2025).
Where two headings read alike, the source gives them in different places.

Tests used:
[1] = system: non-pregnant women with polycystic ovary syndrome; diabetes
[2] = for plasma level as % of level at 2500 mg: non-pregnant women
[3] = system: pregnant women and their infants; settings: maternal blood levels in the highest quartile; 397 ASD, 1034 controls
[4] = system: pregnant women and their infants; settings: prenatal with vitamin E and dietary intake in upper half (12.6-33.8 mg/day)
[5] = diabetes, meta-analysis of 22 randomized controlled trials

[Cr] [Chromium]
fasting plasma glucose and insulin levels (pregnant women; 4 i.g/kg, 24 women with gestational diabetes, U.S.): significantly improved their fasting plasma glucose and insulin levels | pregnancy rate ([1]; 200 i.g for eight weeks, non-pregnant women with polycystic ovary syndrome (vs. 3%)): 17% | atypical depression ([1]; 400-600 i.g/day): helpful for atypical depression | adverse events [1, 5]: no difference in the adverse events between chromium and placebo | glycemic control and lipids [1, 5]: improved glycemic control, reduced triglycerides, and increased HDL-C

O[C@H]1[C@H](O)[C@@H](O)[C@H](O)[C@@H](O)[C@H]1O [Inositol, Myo-inositol]
side effects (high doses up to 18 grams per day): Only some mild diarrhea | side effects (less than 6 grams per day): zero side effects | macrosomia (infants; 4000 mg/day, women at risk of gestational diabetes (vs 5.3%)): 2.1% | preterm birth (infants; 4000 mg/day, women at risk of gestational diabetes (vs. 7.6%)): 3.4% | large for gestational age (infants; 4000 mg/day, women at risk of gestational diabetes (vs. 8.9%)): 4.8% | gestational diabetes (pregnant women; 2000 mg/day, 223 overweight, non-obese pregnant women): significant decrease in gestational diabetes compared to placebo | gestational diabetes (pregnant women; 4000 mg/day, women at risk of gestational diabetes (vs. 25%)): 11% | gestational diabetes (pregnant women; 4 grams per day, at risk women): greatly reduced gestational diabetes (GD)

[Mg] [Magnesium]
tolerability (supplementation studies, 184-500 mg/day): well-tolerated | magnesium blood levels ([2]; 345 mg/day): enough to keep magnesium levels stable | perinatal and maternal composite outcome (infants; 300 mg/day of elemental magnesium, Brazil): did not find any effect on perinatal composite outcome | preterm birth, RR (infants; metanalysis of six RCT's, 3068 pregnant women): 0.58 | rate of pregnancy-induced hypertension (pregnant women; Angola and China studies combined, 201 participants (vs. 21% placebo)): 4% | rate of edema (pregnant women; Angola study (vs. 58%)): 24%

[Mn+2] [Manganese]
Tolerable Upper Limit for Pregnant Women (Table 18): 11 mg | risk of ASD, OR [3]: 1.84

Cc1ncc(CO)c(CO)c1O [Vitamin B6, Pyridoxine]
Tolerable Upper Limit for Pregnant Women (Table 12): 100 mg | effect on birth weight (infants; 2 mg): sufficient to improve birth weight | dental decay during pregnancy (pregnant women; 20 mg/day): significantly reduced the rate of dental decay during pregnancy | symptoms of nausea (pregnant women; 25 mg every 8 hours for 3 days): decrease symptoms of nausea

O=C1O[C@H]([C@@H](O)CO)C(O)=C1O [Vitamin C]
Tolerable Upper Limit for Pregnant Women (Table 12): 2000 mg | maintenance of vitamin C concentrations ([2]; 100 mg supplementation): enough to maintain a constant leukocyte concentration (storage) of vitamin C, but not enough to maintain plasma concentrations | plasma level as % of level at 2500 mg ([2]; steady-state 100 mg/day): approximately 79% | plasma level as % of level at 2500 mg ([2]; steady-state 200 mg/day): ~88% | plasma level as % of level at 2500 mg ([2]; steady-state 400 mg/day): ~95% | plasma level as % of level at 2500 mg ([2]; steady-state 1000 mg/day): ~97% | infant pulmonary function and wheezing (infants; 500 mg/day): improved infant pulmonary function and significantly decreased wheezing through age 1 year | risk of term PROM, RR (pregnant women; Cochrane meta-analysis, vitamin C alone, 170 participants): 0.55 | risk of preterm PROM, RR (pregnant women; Cochrane meta-analysis, vitamin C alone, 1282 participants, five studies): 0.66 | rate of urinary tract infections during pregnancy (pregnant women; Mexico, 100 mg/day (vs. 29%)): 13% | hospitalization during pregnancy (pregnant women; Uganda, 400 mg (vs. 28% for placebo (so in the source))): 42%

C=C1CCC(O)CC1=CC=C1CCCC2(C)C1CCC2C(C)CCCC(C)C (stereo not drawn) [Vitamin D]
Tolerable Upper Limit for Pregnant Women (Table 12): 4000 IU | blood levels of vitamin D ([2]; 2000-4000 IU/day): higher blood levels than just 400 IU/day | asthma/recurrent wheeze at 0-3 yrs, adjusted OR (infants; combined analysis of two studies, 2400 IU/day and 4000 IU/day): 0.74 | reduction of risk of preeclampsia (pregnant women; 400-600 IU/day during pregnancy, after confounder adjustment): 29% | rate of maternal secondary hyperparathyroidism (pregnant women; 800 IU/day (from 27%)): 10%

Vitamin E
Tolerable Upper Limit for Pregnant Women (Table 12): 1000 mg | increase of vitamin E levels by third trimester ([2]; 30 IU, US): 50% | risk of congenital heart defects, times higher [4]: 5-9 | rate of preterm births (infants; about 450 mg/day (about 675 IU/day), non-randomized (vs. 9.3%)): 6.6% | rate of preterm births in women with preeclampsia (infants; approximately 200-600 mg/day (vs. 10.4% unsupplemented)): 8.6% | risk of placental abruption, RR (pregnant women; Cochrane, alpha-tocopherol 200-800 IU with other supplements, 7 trials, 14,922 participants): 0.64

chromium picolinate
comparison of chromium forms [1, 5]: the form with the greatest effects on glucose and triglyceride levels
